With `CC1=NC(=Cc2ccc(F)cc2)C(=O)O1` as the molecule, how does the melting point read?
The melting point was 156 °C.

Which melting point does the source give for `N#Cc1cc(-c2ccccc2)[nH]c1Sc1ccc(N)cc1` here?
The melting point was 146 to 147 °C.

For `O=C(C=Cc1ccc([N+](=O)[O-])cc1)N1CCc2c([nH]c3ccccc23)C1c1ccc2c(c1)OCO2` (stereo not given), which melting point is on record?
The melting point was 158 °C.

Which melting point does the source give for `CC(=O)NC[C@H]1CN(c2ccc(-c3ncns3)c(F)c2)C(=O)O1` here?
Its melting point is 199 to 200 °C.

Which melting point does the source give for `CC(=O)c1ccc(-c2ccc(Br)cc2)c(Br)c1` here?
Its melting point is 82.5 to 84.5 °C.

Which melting point does the source give for `NC(=S)NC[C@H]1CN(c2ccc(N3CCN(C(=O)CO)CC3)c(F)c2)C(=O)O1` here?
The melting point was 209 to 210 °C.

For `O=[N+]([O-])c1cc2ccccc2nc1Nc1ccc(O)cc1`, which melting point is on record?
The melting point was 190 °C.

Which melting point does the source give for `CSC1=Nc2ccc(Cl)cc2C(=O)N(C)C1` here?
Its melting point is 124 to 127 °C.

Which melting point does the source give for `O=c1[nH]c(N[N+](=O)[O-])ncc1Cc1ccco1` here?
The melting point was 183 to 184 °C.

For `CCOc1ccccc1C(=O)Nc1ccc(C(=O)N2CCC(F)(F)/C(=C\C(=O)N(C)C)c3ccccc32)cc1`, which melting point is on record?
The melting point was 195 to 198 °C.

For `O=C1C2CCCCC2=Nc2ccccc2N1Cc1ccccc1` (stereo not given), which melting point is on record?
Its melting point is 123 to 125 °C.

With `Cc1ccc2c(c1)c(N1CCN(C(=O)c3cccs3)CC1)c(C#N)c(=O)n2CCN(C)C` as the molecule, how does the melting point read?
The melting point was 110 to 117 °C.

For `CCc1[nH]n(C2CCCC2)c2nc(-c3cccc(OCC(=O)N4CCOCC4)c3)nc(=O)c1-2`, which melting point is on record?
Its melting point is 212 to 213 °C.

Which melting point does the source give for `O=C(O)Cc1ccc(OCCC(c2ccccc2)(c2ccccc2)c2ccccc2)cc1` here?
Its melting point is 148 to 149 °C.

For `O=C(NCCc1cccc(-c2nc(=O)c3ccccc3s2)n1)c1ccccc1`, which melting point is on record?
Its melting point is 202 to 203 °C.

Which melting point does the source give for `NC(=O)CCC1OC(=O)NC1c1cc(F)c(-n2nnc(Cc3cccs3)n2)c(F)c1` (stereo not given) here?
The melting point was 142 to 144 °C.

For `Cc1cc(I)ccc1O`, which melting point is on record?
The melting point was 64 to 65 °C.

For `O=C(O)CC1=C(Cc2ccc3c(Cl)cccc3c2)C(=O)CCC1`, which melting point is on record?
The melting point was 98 to 100 °C.

Which melting point does the source give for `O=C1NN(c2nc3ccc(Cl)cc3s2)C(c2ccccc2)C1c1ccccc1` (stereo not given) here?
The melting point was 170 to 172 °C.

For `CCCc1nc(C)n2nc(C)nc2c1Cc1ccc(-c2ccccc2C#N)cc1`, which melting point is on record?
The melting point was 132 °C.

Which melting point does the source give for `CCCCCCN1C(=O)C(=O)c2cc(SCCCc3ccc(C(=O)O)cc3)ccc21` here?
The melting point was 150 to 152 °C.

For `COc1ccc(-c2ccc(C)cn2)c(F)c1F`, which melting point is on record?
Its melting point is 73 °C.

For `Cc1oc(-c2ccccc2)nc1COc1cccc(N)c1`, which melting point is on record?
Its melting point is 89 to 90 °C.

For `O=c1[nH]c2cc(Cl)cc(Cl)c2c(=O)n1Cc1cccc2ccccc12`, which melting point is on record?
The melting point was 274 to 276 °C.

With `O=C(c1cc(Cl)nc(Cl)c1)n1ccnc1` as the molecule, how does the melting point read?
Its melting point is 148 to 151 °C.

Which melting point does the source give for `COc1cc2c(Nc3ccc(Sc4nccn4C)c(Cl)c3)c(C#N)cnc2cc1N1CCN(C2CCN(C)CC2)CC1` here?
Its melting point is 220 to 226 °C.

With `CCCN1C(=O)C2(COc3cc4c(cc32)OCO4)c2ccccc21` (stereo not given) as the molecule, how does the melting point read?
The melting point was 158 to 160 °C.

With `CCN(CC)CCOc1ccc(C(O)(CC)c2cccc(Cl)c2)cc1` (stereo not given) as the molecule, how does the melting point read?
The melting point was 64 to 65 °C.

With `Nc1ccc2snc(-c3sccc3Cl)c2c1` as the molecule, how does the melting point read?
Its melting point is 128 to 132 °C.

With `Cc1cc(=O)n(C)c2nc(-c3ccncc3)nn12` as the molecule, how does the melting point read?
Its melting point is 195 to 197 °C.

With `COc1cccc(-c2nn(Cc3ccccc3)c3ncnc(Cl)c23)c1` as the molecule, how does the melting point read?
The melting point was 99 to 101 °C.

For `CS(=O)c1ccc(CSc2nnc(-c3ccc4[nH]ncc4c3)o2)cc1C(F)(F)F` (stereo not given), which melting point is on record?
The melting point was 170 to 171 °C.

For `COc1cc(OC)cc(N2CCN(C(=O)Nc3cc4ccccc4nc3OC)CC2)c1`, which melting point is on record?
The melting point was 200 to 201 °C.

Which melting point does the source give for `O=C(O)Cc1ccc2c(c1)C(=O)c1ccccc1CS2` here?
The melting point was 96 to 97 °C.

For `COC(=O)c1ccc(OC)nc1OC`, which melting point is on record?
The melting point was 52 to 54 °C.

With `CCOC(=O)Cc1nnc(-c2ccc(OC)cc2)n1-c1ccccc1` as the molecule, how does the melting point read?
Its melting point is 130 to 131 °C.

Which melting point does the source give for `CCc1nc(C)c(C(=O)Nc2cc(Oc3ccc4nc(NC(=O)C5CC5)cn4n3)ccc2F)o1` here?
The melting point was 228 °C.

With `CCCc1c(OCCCCC2CC(=O)c3ccc(OCC(=O)O)c(CCC)c3O2)ccc(C(C)=O)c1O` (stereo not given) as the molecule, how does the melting point read?
Its melting point is 164 to 167 °C.

For `Clc1ccc(-c2ncn(CC3CC3)c2-c2ccncc2)cc1Cl`, which melting point is on record?
The melting point was 146 °C.

With `COC(=O)NC(=NS(=O)(=O)NC1CCCCC1)OC` as the molecule, how does the melting point read?
The melting point was 84 to 86 °C.

Reference: a melting point compilation (Tetko et al.; mined from patent text by program, amines drawn as free bases though some values may be those of a salt)
